Assays:
HCH mice (Fgfr3^N534K/+) = assay: Non-stabilized mandibular fracture bone repair in the HCH mouse model, microCT scans and repair grade; format: in vivo
Description: Mandibular bone repair was studied in the HCH mouse model (Fgfr3^N534K/+). The experiments were performed in adult animals at 6 weeks of age, and mice were euthanized at 4 key points: during bone repair (10, 14, 21 days post fracture), and at the end of the normal bone healing process i.e. at 28 days post fracture.
Vertical mandibular fractures were performed in the ascending ramus region in Fgfr3^N534K/+ and Fgfr3^+/+ mice. This is a non-stabilized mandibular fracture protocol allowing to analyze the endochondral bone repair process.
Four batches (n=100) of Fgfr3^N534K/+ and Fgfr3^+/+ mandible fractures corresponding to different key stages of repair were studied (day 10, day 14, day 21, day 28). Using collagen type II (proliferative cartilage), type X (hypertrophic cartilage) and type I (bone) immunolabelling, we observed that the endochondral process is disturbed, we noted a delayed cartilage resorption, a reduction in the size of hypertrophic chondrocytes area and a defect in bone formation within the repair callus in Fgfr3^N534K/+ compared to Fgfr3^+/+. […] We observed the presence of pseudarthrosis (fibrosis in the callus) in Fgfr3^N534K/+ mice whereas we observed 100% of bone in Fgfr3^+/+ callus. Considering the quality of the newly formed bone at day 28, we defined four grades of repair and classified the mice according to their repair grade (from 1 to 4). The defective repair is significant in Fgfr3^N534K/+ compared to Fgfr3^+/+ (FIG. 1C).
HCH mice (Fgfr3^N534K/+) were treated with infigratinib (subcutaneous injections at 4 mg/kg, 3 times per week) from day 0 (facture of the mandible) to day 14 or day 28. The bone repair analyses were evaluated by microCT scans at day 14 and day 28 post fracture (FIGS. 1A and 1B). We quantified BV/TV (Bone Volume/Total Volume) and Callus volume (ratio TV (total volume) of the callus/TV of the contralateral ascending ramus region).

[1] = system: mouse model of ACH (Fgfr3Y367C/+); details: Fgfr3Y367C/+ mice; Komla Ebri et al 2016, Biosse Duplan et al 2016; cited from earlier work
[2] = day 28 grade repair, treated Fgfr3^N534K/+ mice

Structure (SMILES): CCN1CCN(c2ccc(Nc3cc(N(C)C(=O)Nc4c(Cl)c(OC)cc(OC)c4Cl)ncn3)cc2)CC1 [BGJ398, 3-(2,6-dichloro-3,5-dimethoxyphenyl)-1-[6-[4-(4-ethylpiperazin-1-yl)anilino]pyrimidin-4-yl]-1-methylurea]
- Effect on defective bone reparation of the callus (summary in words) (HCH mice (Fgfr3^N534K/+); HCH mandible, non-stabilized fracture): partially restore the defective bone reparation of the callus, increases the bone volume/total volume without pseudarthrosis
- Callus volume (ratio TV of the callus/TV of the contralateral ascending ramus region), treated vs untreated HCH mice (HCH mice (Fgfr3^N534K/+); day 14 post fracture, subcutaneous 4 mg/kg, 3 times per week from day 0, microCT): unchanged
- BV/TV (Bone Volume/Total Volume), change in treated vs untreated HCH mice (HCH mice (Fgfr3^N534K/+); day 14 post fracture, subcutaneous 4 mg/kg, 3 times per week from day 0, microCT, p<0.05): +20.8%
- Complete bone healing (grade 1), mice with this repair grade (HCH mice (Fgfr3^N534K/+); [2]): 7/10
- Restoration of bone continuity, but presence of mild bone defects (grade 2), mice with this repair grade (HCH mice (Fgfr3^N534K/+); [2]): 3/10
- Callus volume, change in treated vs untreated HCH mice (HCH mice (Fgfr3^N534K/+); day 28 post fracture, subcutaneous 4 mg/kg, 3 times per week from day 0, microCT, p<0.0001): −38.6%
- BV/TV (Bone Volume/Total Volume), change in treated vs untreated HCH mice (HCH mice (Fgfr3^N534K/+); day 28 post fracture, subcutaneous 4 mg/kg, 3 times per week from day 0, microCT, p<0.01): +17.8%
- Effect on affected skeletal elements (long bones, vertebrae, intervertebral discs, craniofacial morphology, foramen magnum) [1]: improvement of many of the affected skeletal elements in ACH

Reference: US20260166033A1, “USE OF A FGFR3 TYROSINE KINASE INHIBITOR FOR THE TREATMENT OF FGFR-RELATED BONE REPAIR AND BONE FORMATION IMPAIRMENTS” (INSTITUT NATIONAL DE LA SANTÉ ET DE LA RECHERCHE MÉDICALE, priority 2021, published 2026)
